Results on 23 molecules are retold here after patent US7273866B2, “2-aryl thiazole derivatives as KCNQ modulators” (Bristol-Myers Squibb Company, priority 2002, dated 2007).

Molecules are shown by their SMILES. pEC50: −log10 of the molar value.

The subject of this test is KCNQ channels. The test is described as follows: Thallium flux assay for KCNQ channel openers. Format: cell-based. To be noted: HEK-293 cells stably transfected with a KCNQ family member; for Min. conc. response: minimal active concentration: lowest concentration giving signal amplitude >= four standard deviations of negative controls; for pEC50: thallium flux, 10 point concentration series. As to the method: Thallium Flux Assay for KCNQ channel Openers. The thallium assay is a modification of that published by Weaver and is referenced in its entirety (Weaver, C. D. WO 02/31508, 2002).
Approximately 20,000 cells/well of an HEK-293 cell line stably transfected with one of the members of the KCNQ family were plated into clear-bottom, black-walled, poly-D-lysine coated, 384 well assay plates in 20 μl/well of low chloride plating medium. Low chloride plating medium was composed of the following: sodium gluconate, 109 mM; potassium gluconate, 5.4 mM; hemi-calcium gluconate, 3.6 mM; magnesium sulfate, 0.8 mM; sodium bicarbonate, 26.2 mM; sodium phosphate monobasic, 1.2 mM; glutamine, 2 mM; glucose, 5 mM; 4-(2-hydroxyethyl)-1-piperazineethanesulfonic acid (HEPES) (pH 7.3) 10 mM, MEM vitamin solution (10× concentration of vitamins, Gibco/LifeTechnologies 11120-052) and MEM amino acid solution (1× concentration of amino acids, Gibco/LifeTechnologies 11130-051).
Following overnight incubation in a 5% CO2 incubator at 37° C., the cells in the plates were loaded with 20 μl/well of a dye loading solution containing the commercially available thallium-sensitive fluorescent dye BTC-AM, the acetomethoxy ester of BTC (see U.S. Pat. No. 5,501,980) (2 μM) and pluronic acid F-127 (Molecular Probes P 6867) (0.02% w/v) in chloride free assay buffer. Chloride free assay buffer was composed of the following: sodium gluconate, 140 mM; potassium gluconate, 2.5 mM; hemi-calcium gluconate, 6 mM; hemi-magnesium gluconate, 2 mM; glucose, 5 mM; HEPES (pH 7.3), 10 mM.
Following incubation in the dye loading solution for from 45-90 min at room temperature, the dye loading solution was removed by aspiration and replaced with 40 μl/well of chloride free assay buffer.
Prior to addition to cell plates, test compound and standard compounds were dissolved in DMSO to 3 mM concentration. Compounds were then diluted from the 3 mM stock to 100-fold over the final assay concentration in DMSO. Finally, compounds in DMSO were diluted from 100-fold over the final assay concentration to 5-fold over the final assay concentration in chloride free assay buffer.
Ten μl/well of compounds at 5-fold over the final assay concentration were then added to the cell plates. This represents a 1:5 dilution, yielding the final test concentration. The wells used for test compounds were A1-P20. Wells A21-P22 contained a standard opener and a maximally efficacious concentration (positive control). Wells A23-P24 contained chloride free assay buffer containing 1% DMSO (negative control).
Following addition of test compounds, the plates were loaded onto the Molecular Devices FLIPR. The 488 nm line of the argon laser was used to excite the BTC and the emission filter was a 540(+/−30) nm. Images were collected at 1 Hz. Ten seconds of baseline were collected and then the FLIPR was used to add 13 μl/well of a stimulus buffer composed of 7.5 mM Tl2SO4 in chloride free assay buffer. Images were collected for an additional 60 seconds.
For data analysis, the amplitude of the average of the negative controls was subtracted from all wells. The amplitudes of the test compounds were then compared to the value of four standard deviations of the negative control wells. The lowest concentration of a test compound sufficient to generate a signal amplitude greater than or equal to four standard deviations from the amplitude of the negative controls was defined as the minimal active concentration.
For generating EC50 values, compounds were serially diluted in 1:3 volume increments to produce a 10 point concentration series. EC50 values were calculated by fitting the resulting amplitudes to a single-site logistic equation. EC50 was defined as the concentration of test compound required to yield 50% of the maximal response. Maximal response (Maximal opening) was the largest signal amplitude divided by the negative control amplitude generated by any concentration of a test compound. […]

As for `COc1ccccc1-c1nc(C(F)(F)F)c(C(=O)NC(C)c2cccc(N)c2)s1` (stereo not shown) [Example 39, 2-(2-methoxyphenyl)-4-(trifluoromethyl)-N-[1-(3-aminophenyl)ethyl]-5-thiazolecarboxamide], the Min. conc. response worked out at 10 µM and the pEC50 was 4.70 to 6.00.
For `COc1ccccc1-c1nc(C(F)(F)F)c(C(=O)NC(C)c2cccc(NC(=N)N)c2)s1` (stereo not shown) [Example 40, 2-(2-methoxyphenyl)-4-(trifluoromethyl)-N-[1-[3-(guanidinyl)phenyl]ethyl]-5-thiazolecarboxamide], in that order: 30 µM and 4.70 to 6.00.
The matching figures for `COc1ccc(F)cc1-c1nc(C(F)(F)F)c(C(=O)NC(C)c2cccc(OC(F)(F)F)c2)s1` (stereo not shown) [Example 41, 2-(5-fluoro-2-methoxyphenyl)-4-(trifluoromethyl)-N-[1-[3-(trifluoromethoxy)phenyl]ethyl]-5-thiazolecarboxamide]: 10 µM and 6.00 to 7.30.
The matching figures for `COc1ccc(F)cc1-c1nc(C(F)(F)F)c(C(=O)NC(C)c2cccc(N(C)C)c2)s1` (stereo not shown) [Example 42, 2-(5-fluoro-2-methoxyphenyl)-4-(trifluoromethyl)-N-[1-[3-(dimethylamino)phenyl]ethyl]-5-thiazolecarboxamide]: 10 µM and 6.00 to 7.30.
With `COc1ccc(F)cc1-c1nc(C(F)(F)F)c(C(=O)NC(C)c2cccc(C(F)(F)F)c2)s1` (stereo not shown) [Example 43, 2-(5-fluoro-2-methoxyphenyl)-4-(trifluoromethyl)-N-[1-[3-(trifluoromethyl)phenyl]ethyl]-5-thiazolecarboxamide], the Min. conc. response came to 3 µM and the pEC50 is 6.00 to 7.30.
Molecule `COc1ccc(F)cc1-c1nc(C(F)(F)F)c(C(=O)NCc2cccc(F)c2)s1` [Example 44, 2-(5-fluoro-2-methoxyphenyl)-4-(trifluoromethyl)-N-[(3-fluorophenyl)methyl]-5-thiazolecarboxamide] showed a Min. conc. response of 3 µM and a pEC50 of 6.00 to 7.30.
The matching figures for `COc1cccc(CNC(=O)c2sc(-c3cc(F)ccc3OC)nc2C(F)(F)F)c1` [Example 45, 2-(5-fluoro-2-methoxyphenyl)-4-(trifluoromethyl)-N-[(3-methoxyphenyl)methyl]-5-thiazolecarboxamide]: 3 µM and 4.70 to 6.00.
The matching figures for `COc1ccc(F)cc1-c1nc(C(F)(F)F)c(C(=O)NCc2cccc(OC(F)(F)F)c2)s1` [Example 46, 2-(5-fluoro-2-methoxyphenyl)-4-(trifluoromethyl)-N-[(3-trifluoromethoxyphenyl)methyl]-5-thiazolecarboxamide]: 10 µM and 4.70 to 6.00.
Take `COc1ccc(F)cc1-c1nc(C(F)(F)F)c(C(=O)N[C@@H](C)c2cccc(N3CCOCC3)c2)s1` [Example 47, (S)-2-(5-fluoro-2-methoxyphenyl)-4-(trifluoromethyl)-N-[1-[3-(4-morpholinyl)phenyl]ethyl]-5-thiazolecarboxamide]: the Min. conc. response turned out to be 3 µM and the pEC50 was 4.70 to 6.00.
The matching figures for `COc1cccc([C@H](C)NC(=O)c2sc(-c3cc(F)ccc3OC)nc2C(F)(F)F)c1` [Example 48, (S)-2-(5-fluoro-2-methoxyphenyl)-4-(trifluoromethyl)-N-[1-[3-(methoxy)phenyl]ethyl]-5-thiazolecarboxamide]: 3 µM and 6.00 to 7.30.
As for `CC(NC(=O)c1sc(-c2ccccc2Cl)nc1C(F)(F)F)c1cccc(OC(F)(F)F)c1` (stereo not shown) [Example 49, 2-(2-chlorophenyl)-4-(trifluoromethyl)-N-[1-[3-(trifluoromethoxy)phenyl]ethyl]-5-thiazolecarboxamide], the Min. conc. response stood at 0.3 µM and the pEC50 is 6.00 to 7.30.
For `CC(NC(=O)c1sc(-c2ccccc2Cl)nc1C(F)(F)F)c1cccc(N(C)C)c1` (stereo not shown) [Example 50, 2-(2-chlorophenyl)-4-(trifluoromethyl)-N-[1-[3-(dimethylamino)phenyl]ethyl]-5-thiazolecarboxamide], in that order: 0.3 µM and 6.00 to 7.30.
For `CC(NC(=O)c1sc(-c2ccccc2Cl)nc1C(F)(F)F)c1cccc(C(F)(F)F)c1` (stereo not shown) [Example 51, 2-(2-chlorophenyl)-4-(trifluoromethyl)-N-[1-[3-(trifluoromethyl)phenyl]ethyl]-5-thiazolecarboxamide], in that order: 0.3 µM and 6.00 to 7.30.
The matching figures for `C[C@H](NC(=O)c1sc(-c2ccccc2Cl)nc1C(F)(F)F)c1cccc(N2CCOCC2)c1` [Example 52, 2-(2-chlorophenyl)-4-(trifluoromethyl)-N-[1-[3-(4-morpholinyl)phenyl]ethyl]-5-thiazolecarboxamide]: 3 µM and 6.00 to 7.30.
For `CC(NC(=O)c1sc(-c2ccccc2Cl)nc1C(F)(F)F)c1cccc(CN2CCOCC2)c1` (stereo not shown) [Example 53, 2-(2-chlorophenyl)-4-(trifluoromethyl)-N-[1-[3-(4-morpholinylmethyl)phenyl]ethyl]-5-thiazolecarboxamide], the Min. conc. response amounted to 3 µM and the pEC50 was 4.70 to 6.00.
The matching figures for `CCN(CC)CCOc1ccccc1-c1nc(C(F)(F)F)c(C(=O)NCc2cccc(F)c2)s1` [Example 54]: 0.3 µM and 4.70 to 6.00.
The matching figures for `COc1cccc(C(C)NC(=O)c2sc(-c3ccccc3N3CCOCC3)nc2C(F)(F)F)c1` (stereo not shown) [Example 55, 2-[2-(4-morpholinyl)phenyl]-4-(trifluoromethyl)-N-[1-[3-(methoxy)phenyl]ethyl]-5-thiazolecarboxamide]: 0.3 µM and 4.70 to 6.00.
The matching figures for `CC(NC(=O)c1sc(-c2ccccc2N2CCOCC2)nc1C(F)(F)F)c1cccc(C(F)(F)F)c1` (stereo not shown) [Example 56, 2-[2-(4-morpholinyl)phenyl]-4-(trifluoromethyl)-N-[1-[3-(trifluoromethyl)phenyl]ethyl]-5-thiazolecarboxamide]: 0.3 µM and 6.00 to 7.30.
Consider `CC(NC(=O)c1sc(-c2ccccc2N2CCOCC2)nc1C(F)(F)F)c1cccc(OC(F)(F)F)c1` (stereo not shown) [Example 57, 2-[2-(4-morpholinyl)phenyl]-4-(trifluoromethyl)-N-[1-[3-(trifluoromethoxy)phenyl]ethyl]-5-thiazolecarboxamide], for which the Min. conc. response turned out to be 0.3 µM and the pEC50 is 6.00 to 7.30.
`CC(NC(=O)c1sc(-c2ccc(N3CCOCC3)cc2)nc1C(F)(F)F)c1cccc(OC(F)(F)F)c1` (stereo not shown) [Example 58, 2-[4-(4-morpholinyl)phenyl]-4-(trifluoromethyl)-N-[1-[3-(trifluoromethoxy)phenyl]ethyl]-5-thiazolecarboxamide] had a Min. conc. response of 30 µM and a pEC50 of 6.00 to 7.30.
The matching figures for `CCN(Cc1ccncc1)Cc1ccccc1-c1nc(C(F)(F)F)c(C(=O)NCc2cccc(OC(F)(F)F)c2)s1` [Example 59]: 3 µM and 6.00 to 7.30.
For `CCN(Cc1ccncc1)Cc1ccccc1-c1nc(C(F)(F)F)c(C(=O)N[C@@H](C)c2cccc(OC)c2)s1` [Example 60], in that order: 0.3 µM and 6.00 to 7.30.
For `CCN(CC)Cc1cccnc1-c1nc(C(F)(F)F)c(C(=O)NC(C)c2cccc(OC(F)(F)F)c2)s1` (stereo not shown) [Example 61, 2-[3-(diethylaminomethyl)pyridin-2-yl]-4-(trifluoromethyl)-N-[1-[3-(trifluoromethoxy)phenyl]ethyl]-5-thiazolecarboxamide], in that order: 30 µM and 6.00 to 7.30.
